Measured values as given in patent publication US20260158009A1 (GENZYME CORPORATION, priority 2023, published 2026).
pIC50: −log10 of the molar value.

Experiments:
[1] = biological target: T1, hRIPK1 (aa 1-375) fusion protein (Homo sapiens, UniProt Q13546); assay: ADP-Glo kinase assay: catalytic activity of RIPK1 (autophosphorylation, conversion of ATP to ADP); format: biochemical
T1 construct: hRIPK1 (aa 1-375) fusion protein
T1 sequence (Q13546 1-375): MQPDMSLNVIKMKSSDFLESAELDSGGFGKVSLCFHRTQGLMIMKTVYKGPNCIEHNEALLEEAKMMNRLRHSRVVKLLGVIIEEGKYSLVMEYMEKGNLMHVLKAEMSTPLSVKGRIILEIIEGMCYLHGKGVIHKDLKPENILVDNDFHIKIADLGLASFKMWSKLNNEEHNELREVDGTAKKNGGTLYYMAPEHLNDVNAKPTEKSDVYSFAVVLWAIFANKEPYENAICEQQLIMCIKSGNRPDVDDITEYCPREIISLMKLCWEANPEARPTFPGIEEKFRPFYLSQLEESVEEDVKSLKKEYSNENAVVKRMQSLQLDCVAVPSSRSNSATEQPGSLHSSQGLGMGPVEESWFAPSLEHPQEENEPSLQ
Summary of the method: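 hRIPK1 (aa 1-375) fusion protein (3.6 μg/ml final) was preincubated 30 min at rt with compound (33300-1.69 nM, 1% DMSO), then 50 μM ATP was added for 240 min at rt. ADP from autophosphorylation was measured by ADP-Glo luminescence and curves fitted by nonlinear regression.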

U937 cells = assay: Cellular assay in U937 cells: activity of RIPK1 inhibitors on TNFα/zVAD.fmk-induced cell death (necroptosis), CellTiter 96 AQueous (MTS) readout; format: cell-based; settings: Homo sapiens, U-937
Summary of the method: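 Necroptosis was measured by viable-cell MTS reduction (4 h, absorbance 490 nm) after overnight (18–24 h) 37° C culture. Cell suspensions of U937 cells carried TNFα (100 ng/ml) plus zVAD.fmk (50 μM) before compound was added. A 10-point curve (10 μM–0.26 nM or 1 μM–0.07 nM) was run in duplicate, normalised to the control lacking TNFα/zVAD.fmk.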

Row | SMILES | pIC50 [1] | pIC50 (U937 cells)
1 | Cc1ncc([C@@H]2CCON2C(=O)[C@H]2CC[C@H](Cc3ccc4ncnn4c3)CC2)cc1F [compound 337, trans-[(3S)-3-(5-fluoro-6-methylpyridin-3-yl)-1,2-oxazolidin-2-yl]-[4-([1,2,4]triazolo[1,5-a]pyridin-6-ylmethyl)cyclohexyl]methanone] | 7.59 | 7.51
2 | O=C([C@H]1CC[C@H](Cc2ccc3ncnn3c2)CC1)N1OCC[C@H]1c1cncc(F)c1 [compound 338, trans-[(3S)-3-(5-fluoropyridin-3-yl)-1,2-oxazolidin-2-yl]-[4-([1,2,4]triazolo[1,5-a]pyridin-6-ylmethyl)cyclohexyl]methanone] | 7.54 | 7.35
3 | Cc1cnc([C@@H]2CCON2C(=O)[C@H]2CC[C@H](Cc3cc(C)ncc3C)CC2)cn1 [compound 339, trans-[4-[(2,5-dimethylpyridin-4-yl)methyl]cyclohexyl]-[(3S)-3-(5-methylpyrazin-2-yl)-1,2-oxazolidin-2-yl]methanone] | 7.60 | 7.80
4 | Cc1nc2c(F)cc(C[C@H]3CC[C@H](C(=O)N4OCC[C@H]4c4cnccn4)CC3)cn2n1 [compound 340, trans-[4-[(8-fluoro-2-methyl-[1,2,4]triazolo[1,5-a]pyridin-6-yl)methyl]cyclohexyl]-[(3S)-3-pyrazin-2-yl-1,2-oxazolidin-2-yl]methanone] | 7.60 | 7.11
5 | Cc1ccc([C@@H]2CCON2C(=O)[C@H]2CC[C@H](Cc3cc(F)c4nc(C)nn4c3)CC2)cn1 [compound 341, trans-[4-[(8-fluoro-2-methyl-[1,2,4]triazolo[1,5-a]pyridin-6-yl)methyl]cyclohexyl]-[(3S)-3-(6-methylpyridin-3-yl)-1,2-oxazolidin-2-yl]methanone] | 7.09 | 6.94
6 | COc1cc(C[C@H]2CC[C@H](C(=O)N3OCC[C@H]3c3cnc(C)c(F)c3)CC2)cn2nc(C)nc12 [compound 342, trans-[(3S)-3-(5-fluoro-6-methylpyridin-3-yl)-1,2-oxazolidin-2-yl]-[4-[(8-methoxy-2-methyl-[1,2,4]triazolo[1,5-a]pyridin-6-yl)methyl]cyclohexyl]methanone] | 7.59 | 8.10
7 | Cc1ncc(C[C@H]2CC[C@H](C(=O)N3OCC[C@H]3c3cnc(C)c(F)c3)CC2)cn1 [compound 343, trans-[(3S)-3-(5-fluoro-6-methylpyridin-3-yl)-1,2-oxazolidin-2-yl]-[4-[(2-methylpyrimidin-5-yl)methyl]cyclohexyl]methanone] | 7.37 | 7.68
8 | Cc1ccc([C@@H]2CCON2C(=O)[C@H]2CC[C@H](Cc3cnc(C)nc3)CC2)cn1 [compound 344, trans-[(3S)-3-(6-methylpyridin-3-yl)-1,2-oxazolidin-2-yl]-[4-[(2-methylpyrimidin-5-yl)methyl]cyclohexyl]methanone] | 6.61 | 6.76
9 | COc1cc(C[C@H]2CC[C@H](C(=O)N3OCC[C@H]3c3cncc(F)c3)CC2)cn2nc(C)nc12 [compound 345, trans-[(3S)-3-(5-fluoropyridin-3-yl)-1,2-oxazolidin-2-yl]-[4-[(8-methoxy-2-methyl-[1,2,4]triazolo[1,5-a]pyridin-6-yl)methyl]cyclohexyl]methanone] | 7.59 | 8.10
10 | Cc1ncc(C[C@H]2CC[C@H](C(=O)N3OCC[C@H]3c3cnccn3)CC2)cn1 [compound 346, trans-[4-[(2-methylpyrimidin-5-yl)methyl]cyclohexyl]-[(3S)-3-pyrazin-2-yl-1,2-oxazolidin-2-yl]methanone] | 7.08 | 7.15
11 | Cc1ccc([C@@H]2CCON2C(=O)[C@H]2CC[C@H](Cc3cc(C)c4ncnn4c3)CC2)cn1 [compound 347, trans-[(3S)-3-(6-methylpyridin-3-yl)-1,2-oxazolidin-2-yl]-[4-[(8-methyl-[1,2,4]triazolo[1,5-a]pyridin-6-yl)methyl]cyclohexyl]methanone] | 7.34 | 7.23
12 | Cc1ccc([C@@H]2CCON2C(=O)[C@H]2CC[C@H](Cc3ccc(C4(O)COC4)cc3)CC2)cn1 [compound 348, trans-5 [4-[[4-(3-hydroxyoxetan-3-yl)phenyl]methyl]cyclohexyl]-[(3S)-3-(6-methylpyridin-3-yl)-1,2-oxazolidin-2-yl]methanone] | 7.43 | 6.98
13 | Cc1cn2ncc(C[C@H]3CC[C@H](C(=O)N4OCC[C@H]4c4cnccn4)CC3)cc2n1 [compound 349, trams-[4-[(2-methylimidazo[1,2-b]pyridazin-7-yl)methyl]cyclohexyl]-[(3S)-3-pyrazin-2-yl-1,2-oxazolidin-2-yl]methanone] | 7.38 | 6.97
14 | Cc1cn2cc(C[C@H]3CC[C@H](C(=O)N4OCC[C@H]4c4cnccn4)CC3)cc(F)c2n1 [compound 350, trans-[4-(8-Fluoro-2-methyl-imidazo[1,2-a]pyridin-6-ylmethyl)-cyclohexyl]-((S)-3-pyrazin-2-yl-isoxazolidin-2-yl)-methanone] | 7.20 | 7.47
15 | Cc1ccc([C@@H]2CCON2C(=O)[C@H]2CC[C@H](Cc3cc(F)c4nc(C)cn4c3)CC2)cn1 [compound 351, trans-[4-[(8-fluoro-2-methylimidazo[1,2-a]pyridin-6-yl)methyl]cyclohexyl]-[(3S)-3-(6-methylpyridin-3-yl)-1,2-oxazolidin-2-yl]methanone] | 6.68 | 6.83
16 | O=C([C@H]1CC[C@H](Cc2ccc(C3(O)COC3)cc2)CC1)N1OCC[C@H]1c1cnccn1 [compound 352, trans-[4-[[4-(3-hydroxyoxetan-3-yl)phenyl]methyl]cyclohexyl]-[(3S)-3-pyrazin-2-yl-1,2-oxazolidin-2-yl]methanone] | 7.52 | 7.24
17 | Cc1ccc([C@@H]2CCON2C(=O)[C@H]2CC[C@H](Cc3cnn4cc(C)nc4c3)CC2)cn1 [compound 353, trans-[4-[(2-methylimidazo[1,2-b]pyridazin-7-yl)methyl]cyclohexyl]-[(3S)-3-(6-methylpyridin-3-yl)-1,2-oxazolidin-2-yl]methanone] | 7.06 | 6.95
18 | Cc1ccc([C@@H]2CCON2C(=O)[C@H]2CC[C@H](Cc3cc(C)ncc3C)CC2)cn1 [compound 354, trans-[4-(2,5-Dimethyl-pyridin-4-ylmethyl)-cyclohexyl]-[(S)-3-(6-methyl-pyridin-3-yl)-isoxazolidin-2-yl]-methanone] | 7.48 | 7.57
19 | Cc1ccc(C[C@H]2CC[C@H](C(=O)N3OCC[C@H]3c3cnccn3)CC2)nn1 [compound 357, trans-[4-[(6-methylpyridazin-3-yl)methyl]cyclohexyl]-[(3S)-3-pyrazin-2-ylisoxazolidin-2-yl]methanone] | 6.86 | 6.27
20 | Cc1nnc2ccc(CC3CCC(C(=O)N4OCC[C@H]4c4cnccn4)CC3)c(C)n12 (stereo partly drawn) [compound 358, [4-[(3,5-dimethyl-[1,2,4]triazolo[4,3-a]pyridin-6-yl)methyl]cyclohexyl]-[(3S)-3-pyrazin-2-yl-1,2-oxazolidin-2-yl]methanone] | 7.51 | 6.32
